Tested on: MLV
Experiment: VRV study on Arginine treatment of PA eluate
Format: cell-based, Murine Leukemia Virus
Protocol: Based on the stability and activity studies reported in Example 1, the most promising viral inactivation methods were further tested for their ability to inactivate viruses. The effectiveness of the viral inactivation was evaluated by doing a spiking study at Bioreliance. Test samples were taken before and after each treatment and analyzed for viral titre. First, VRV study on Arginine treatment was carried out.
Only one virus, MLV, which is a typical model virus used for biological products derived from CHO cell lines such as monoclonal antibody, was used for this study. A total of 7 runs were performed. PA eluate from development runs was used as starting material. Different stock buffers of Arginine at the different pH (pH 4.0, pH 4.75, pH 4.79 and pH 5.5) were used to reach the target pH and concentration. The samples were neutralized using 250 mM Histidine pH 12.0 buffer around pH 6.0 to stop the reaction.
Log reduction values was calculated with respect to the neutralized load sample, a 5 plate large volume plating as well as a standard titration was performed on the t=60 min sample. The neutralized load hold sample was held at 16.0° C. to 20.0° C. for 60 minutes (runs 2, 4 and 6) or 120 minutes (runs 1, 3, 5 and 7).

SMILES: N=C(N)NCCC[C@H](N)C(=O)O [Arginine]
- log10 reduction factor (Run 2, Arginine concentration (mM) 0.4, pH 4, 60 min): 4.16 +/− 0.32 log10
- log10 reduction factor (Run 3, Arginine concentration (mM) 0.8, pH 4, 120 min): 4.10 +/− 0.35 log10
- log10 reduction factor (Run 4, Arginine concentration (mM) 0.8, pH 4.75, 60 min): 2.82 +/− 0.4 log10
- log10 reduction factor (Run 5, Arginine concentration (mM) 0.38, pH 4.79, 120 min): no reduction
- log10 reduction factor (Run 6, Arginine concentration (mM) 0, pH 5.5, 60, 120 min): 0.35 +/− 0.4 log10
- log10 reduction factor (Run 7, Arginine concentration (mM) 0.8, pH 5.5, 120 min): no reduction
